Measured values published in paper PMC7587962, “Evaluation of Cytotoxicity and α-Glucosidase Inhibitory Activity of Amide and Polyamino-Derivatives of Lupane Triterpenoids” (Molecules, 2020).

Experiments:
CCRF-CEM = experiment: NCI-60 SRB screen: leukemia CCRF-CEM; assay type: cell-based; settings: Homo sapiens, 48 h
HL-60(TB) = experiment: NCI-60 SRB screen: leukemia HL-60(TB); assay type: cell-based; settings: Homo sapiens, HL-60, 48 h
K-562 = experiment: NCI-60 SRB screen: leukemia K-562; assay type: cell-based, human
MOLT-4 = experiment: NCI-60 SRB screen: leukemia MOLT-4; assay type: cell-based; settings: Homo sapiens, MOLT-4, 48 h
RPMI-8226 = experiment: NCI-60 SRB screen: leukemia RPMI-8226; assay type: cell-based; settings: Homo sapiens, RPMI-8226, 48 h
A549/ATCC = experiment: NCI-60 SRB screen: non-small cell lung cancer A549/ATCC; assay type: cell-based, human
EKVX = experiment: NCI-60 SRB screen: non-small cell lung cancer EKVX; assay type: cell-based, human
HOP-92 = experiment: NCI-60 SRB screen: non-small cell lung cancer HOP-92; assay type: cell-based, human
NCI-H23 = experiment: NCI-60 SRB screen: non-small cell lung cancer NCI-H23; assay type: cell-based, human
NCI-H322M = experiment: NCI-60 SRB screen: non-small cell lung cancer NCI-H322M; assay type: cell-based, human
NCI-H460 = experiment: NCI-60 SRB screen: non-small cell lung cancer NCI-H460; assay type: cell-based; settings: Homo sapiens, NCI-H460, 48 h
NCI-H522 = experiment: NCI-60 SRB screen: non-small cell lung cancer NCI-H522; assay type: cell-based, human
HCC-2998 = experiment: NCI-60 SRB screen: colon cancer HCC-2998; assay type: cell-based, human
HT29 = experiment: NCI-60 SRB screen: colon cancer HT29; assay type: cell-based; settings: Homo sapiens, HT-29, 48 h
KM12 = experiment: NCI-60 SRB screen: colon cancer KM12; assay type: cell-based, human
SF-295 = experiment: NCI-60 SRB screen: CNS cancer SF-295; assay type: cell-based, human
SF-539 = experiment: NCI-60 SRB screen: CNS cancer SF-539; assay type: cell-based, human
SNB-19 = experiment: NCI-60 SRB screen: CNS cancer SNB-19; assay type: cell-based, human
M14 = experiment: NCI-60 SRB screen: melanoma M14; assay type: cell-based, human
MDA-MB-435 = experiment: NCI-60 SRB screen: melanoma MDA-MB-435; assay type: cell-based, human
UACC-257 = experiment: NCI-60 SRB screen: melanoma UACC-257; assay type: cell-based, human
IGROV1 = experiment: NCI-60 SRB screen: ovarian cancer IGROV1; assay type: cell-based, human
OVCAR-4 = experiment: NCI-60 SRB screen: ovarian cancer OVCAR-4; assay type: cell-based; settings: Homo sapiens, OVCAR-4, 48 h
OVCAR-5 = experiment: NCI-60 SRB screen: ovarian cancer OVCAR-5; assay type: cell-based, human
A498 = experiment: NCI-60 SRB screen: renal cancer A498; assay type: cell-based, human
ACHN = experiment: NCI-60 SRB screen: renal cancer ACHN; assay type: cell-based, human
RXF 393 = experiment: NCI-60 SRB screen: renal cancer RXF 393; assay type: cell-based, human
SN12C = experiment: NCI-60 SRB screen: renal cancer SN12C; assay type: cell-based, human
UO-31 = experiment: NCI-60 SRB screen: renal cancer UO-31; assay type: cell-based, human
PC-3 = experiment: NCI-60 SRB screen: prostate cancer PC-3; assay type: cell-based, human
DU-145 = experiment: NCI-60 SRB screen: prostate cancer DU-145; assay type: cell-based, human
MDA-MB-468 = experiment: NCI-60 SRB screen: breast cancer MDA-MB-468; assay type: cell-based, human; settings: for GI50: five concentrations, 48 h, SRB
[1] = test system: 60 human tumor cell lines; settings: single dose 10 µM
Leukemia subpanel = experiment: NCI-60 screen, subpanel Leukemia
Melanoma subpanel = experiment: NCI-60 screen, subpanel Melanoma
NSCL cancer subpanel = experiment: NCI-60 screen, subpanel NSCL cancer
Renal Cancer subpanel = experiment: NCI-60 screen, subpanel Renal Cancer
[2] = read-out: Percentage Cell Growth

Compound: C=C(C)[C@@H]1CC[C@]2(C(N)=O)CC[C@]3(C)[C@H](CC[C@@H]4[C@@]5(C)CC[C@H](O)C(C)(C)[C@@H]5CC[C@]43C)[C@@H]12 [Compound 5]
- GI50 (CCRF-CEM): 4.49 µM
- activity at 10 µM (CCRF-CEM; [2]): 3.11%
- GI50 (HL-60(TB)): 3.59 µM
- activity at 10 µM (HL-60(TB); [2]): 1.17%
- GI50 (K-562; Homo sapiens, K562, 48 h): 3.04 µM
- Percentage Cell Growth (K-562; K-562, single dose 10 µM): 4.57%
- GI50 (MOLT-4): 3.43 µM
- activity at 10 µM (MOLT-4; [2]): 1.86%
- GI50 (RPMI-8226): 3.53 µM
- activity at 10 µM (RPMI-8226; [2]): -19.8%
- Percentage Cell Growth (A549/ATCC; A549/ATCC, single dose 10 µM): −69.33%
- GI50 (A549/ATCC; Homo sapiens, A549, 48 h): 2.11 µM
- GI50 (EKVX; Homo sapiens, 48 h): 2.96 µM
- Percentage Cell Growth (EKVX; single dose 10 µM): −10.31%
- Percentage Cell Growth (HOP-92; HOP-92, single dose 10 µM): −62.83%
- GI50 (HOP-92; Homo sapiens, HOP-92, 48 h): 2.69 µM
- GI50 (NCI-H23; Homo sapiens, NCI-H23, 48 h): 2.26 µM
- Percentage Cell Growth (NCI-H23; NCI-H23, single dose 10 µM): −27.08%
- GI50 (NCI-H322M; Homo sapiens, 48 h): 2.59 µM
- Percentage Cell Growth (NCI-H322M; single dose 10 µM): −58.91%
- GI50 (NCI-H460): 2.12 µM
- activity at 10 µM (NCI-H460; [2]): -37.5%
- GI50 (NCI-H522; Homo sapiens, NCI-H522, 48 h): 3.13 µM
- Percentage Cell Growth (NCI-H522; NCI-H522, single dose 10 µM): −53.76%
- Percentage Cell Growth (HCC-2998; HCC-2998, single dose 10 µM): −39.02%
- GI50 (HCC-2998; Homo sapiens, HCC 2998, 48 h): 3.96 µM
- GI50 (HT29): 2.56 µM
- activity at 10 µM (HT29; [2]): -49.5%
- GI50 (KM12; Homo sapiens, KM12, 48 h): 3.2 µM
- Percentage Cell Growth (KM12; KM12, single dose 10 µM): −63.59%
- GI50 (SF-295; Homo sapiens, SF-295, 48 h): 3.39 µM
- Percentage Cell Growth (SF-295; SF-295, single dose 10 µM): −57.70%
- GI50 (SF-539; Homo sapiens, SF-539, 48 h): 1.78 µM
- Percentage Cell Growth (SF-539; SF-539, single dose 10 µM): −70.46%
- GI50 (SNB-19; Homo sapiens, SNB-19, 48 h): 4.57 µM
- Percentage Cell Growth (SNB-19; SNB-19, single dose 10 µM): 1.30%
- GI50 (M14; Homo sapiens, M14, 48 h): 6.05 µM
- Percentage Cell Growth (M14; M14, single dose 10 µM): 8.80%
- GI50 (MDA-MB-435; Homo sapiens, MDA-MB-435, 48 h): 8.65 µM
- Percentage Cell Growth (MDA-MB-435; MDA-MB-435, single dose 10 µM): −4.44%
- GI50 (UACC-257; Homo sapiens, UACC-257, 48 h): 13.2 µM
- Percentage Cell Growth (UACC-257; UACC-257, single dose 10 µM): −6.08%
- GI50 (IGROV1; Homo sapiens, IGROV-1, 48 h): 3.32 µM
- Percentage Cell Growth (IGROV1; IGROV1, single dose 10 µM): −58.08%
- GI50 (OVCAR-4): 3.54 µM
- GI50 (OVCAR-5; Homo sapiens, OVCAR-5, 48 h): 3.78 µM
- Percentage Cell Growth (OVCAR-5; OVCAR-5, single dose 10 µM): −21.57%
- Percentage Cell Growth (A498; A498, single dose 10 µM): −28.33%
- GI50 (A498; Homo sapiens, A498, 48 h): 12.2 µM
- GI50 (ACHN; Homo sapiens, 48 h): 2.44 µM
- Percentage Cell Growth (ACHN; single dose 10 µM): −80.29%
- GI50 (RXF 393; Homo sapiens, RXF 393, 48 h): 2.1 µM
- Percentage Cell Growth (RXF 393; RXF 393, single dose 10 µM): −49.35%
- GI50 (SN12C; Homo sapiens, 48 h): 3 µM
- Percentage Cell Growth (SN12C; single dose 10 µM): −45.76%
- GI50 (UO-31; Homo sapiens, UO-31, 48 h): 1.72 µM
- Percentage Cell Growth (UO-31; UO-31, single dose 10 µM): −100.00%
- GI50 (PC-3; Homo sapiens, PC-3, 48 h): 2.83 µM
- Percentage Cell Growth (PC-3; PC-3, single dose 10 µM): −24.47%
- Percentage Cell Growth (DU-145; DU-145, single dose 10 µM): −32.96%
- GI50 (DU-145; Homo sapiens, DU-145, 48 h): 3.21 µM
- GI50 (MDA-MB-468; Homo sapiens, MDA-MB-468, 48 h): 1.97 µM
- GI50 (MDA-MB-468): 3.2 µM
- Percentage Cell Growth (MDA-MB-468; single dose 10 µM): −56.03%
- cancer cell lethality, range of percentage growth ([1]; cell lines with negative growth): −1.70% to −100%
- cases of cancer cell lethality ([1]; number of cell lines): 49
- MID b, average sensitivity of all cell line of particular subpanel (Leukemia subpanel): 3.20 µM
- Selectivity, ratio MID a: MID b (Leukemia subpanel): 1.15
- MID b, average sensitivity of all cell line of particular subpanel (Melanoma subpanel): 5.58 µM
- Selectivity, ratio MID a: MID b (Melanoma subpanel): 0.66
- MID b, average sensitivity of all cell line of particular subpanel (NSCL cancer subpanel): 2.79 µM
- Selectivity, ratio MID a: MID b (NSCL cancer subpanel): 1.32
- MID b, average sensitivity of all cell line of particular subpanel (Renal Cancer subpanel): 3.53 µM
- Selectivity, ratio MID a: MID b (Renal Cancer subpanel): 1.04
